# Assay results taken from patent publication US20040009168A1, “Multidose antibody formulation” (priority 2002, published 2004).
# Entries after “also recorded” stand apart in the source; their conditions may differ.
# Key:
# [1] = test system: formulated humanized monoclonal antibody; assay: Visual analysis of the antibody formulation with preservative; type: physicochemical; details: for Visual analysis: after 2 days at 50° C.
# Method: (§1) The compatibility of six parenteral preservatives (benzyl alcohol, chlorobutanol, methyl paraben, propyl paraben, phenol, and m-cresol) with the formulated humanized monoclonal antibody was tested. The preservatives were added to the formulated antibody based on their commonly used concentration ranges in marketed multidose products (3). Protein aggregation was suspected to be the primary degradation pathway. Preliminary evaluation of the preservatives was done initially by DSC and after 2 days of incubation at 50° C. by visual inspection for appearance and by SEC for soluble aggregates.
# [2] = test system: formulated humanized monoclonal antibody; assay: Size-exclusion chromatography (SEC), monomer content; type: physicochemical; details: for Monomer (%): 1 week at 45 ° C.; for Percent monomer (by SEC): after 2 days at 50° C.
# Method: as §1
# (§2) Because of the results seen in the preliminary evaluation, additional analyses were done using lower concentrations of the preservatives.
# The monomer content, soluble aggregates, and clips due to hydrolysis were monitored by size-exclusion chromatography. The analytical system employed consisted of an HPLC pump (Perkin Elmer, Series 410) and an autosampler (Perkin Elmer, ISS 2000) connected to a diode array detector (Perkin Elmer, 235C). Two size-exclusion chromatography columns (Tosohaas TSK-Gel, G3000SWXL,), connected in tandem, were used for sample separation. The composition of the mobile phase was 200 mM KPO4, 150 mM NaCl, pH 6.9. Samples were diluted to 1 mg/mL and a sample volume of 40 μL was injected for analysis. The flow rate was 1.0 mL/min, and detection was at 220 and 280 nm.
# [3] = test system: formulated humanized monoclonal antibody; assay: Differential scanning calorimetry (DSC), denaturation temperature; type: physicochemical; details: initial time point, t0
# Method: as §1
# A decrease in the denaturation temperature reflects a destabilizing effect of the preservative on formulation stability. The denaturation temperature (Tm) of the sample was measured using the Pyris 1 differential scanning calorimeter (Perkin Elmer). A sample volume of 50 μL was taken from a 10 mg/mL protein sample and sealed in a stainless steel pan. The sample was held at 32° C. for 2 minutes, and heated to 100° C. at the rate of 10° C./min.
# [4] = test system: antigen expressed on human T cells; assay: Potency testing by FACS binding assay (flow cytometry); details: 1 week at 45 ° C.
# Method: as §2
# The biological activity (potency) of the protein was measured by flow cytometry, based on the binding of the antibody antigen expressed on human T cells.
# [5] = test system: Escherichia coli, Staphylococcus aureus, Pseudomonas aeruginosa; assay: Preservative screening test (modified USP/EP preservative efficacy test), bacteria; type: cell-based; details: for b-coefficient, Bacterial LR: ± 95% confidence limits; for Bacterial × 10^4 (cfu/mL): 1 week at 25 ° C., total bacterial count 8.78 × 10^4 cfu/mL
# Method: (§3) The efficacy of the preservative against various microorganisms was measured using a modified USP/EP preservative efficacy test. These tests were conducted at Microconsult Inc. (Dallas, Tex.). In the procedure, formulations were tested against the following microorganisms: Escherichia coli, Staphylococcus aureus, Pseudomonas aeruginosa, Candida albicans, and Aspergillus niger. The three bacterial strains were inoculated together at a total concentration of ˜10^5 cfu/mL, and the two fungi were inoculated together at a total concentration of ˜10^5 cfu/mL. Samples were incubated for 7 days at room temperature (25° C.), and the total bacterial and fungal counts were measured using a colony counter. The log reduction (LR) values for the bacterial and fungal counts were calculated as log (initial count/final count).
# (§4) In the unmodified USP/EP preservative efficacy tests, each microorganism is tested separately at a concentration of ˜10^5 cfu/mL. […] The preservative efficacy test was modified in this study to reduce the total sample requirement and cost per analysis. Although the bacterial and fungal strains were not tested individually at specified concentrations, by comparing the overall bacterial and fungal log reduction values with the regulatory requirements, an assessment is made of the efficacy of the preservative against these microorganisms.
# (§5) The formulations were prepared by adding the preservatives at the desired concentrations as per the I-optimal design table (Table II), generated using the software Strategy (Experiment Strategies Foundation & Process Builder, Inc.). All samples were incubated at 37° C. for 9 weeks. Because protein aggregation was known to be the primary degradation pathway, protein stability was examined by SEC and right-angle light scattering to monitor the formation of soluble and insoluble aggregates, respectively, and by UV spectroscopy to monitor changes in the protein concentration. The biological activity of the samples was assessed after 1 month at 37° C. Furthermore, to assess the antimicrobial efficacy of the formulations, samples were examined by the preservative screening test at the initial time point. Samples were incubated at room temperature, and the aerobic plate counts were measured based on the minimum requirements of the USP and BP/EP preservative efficacy tests at 24 hours, 7 days, and 14 days.
# [6] = test system: Candida albicans, and Aspergillus niger; assay: Preservative screening test (modified USP/EP preservative efficacy test), fungi; type: cell-based; details: for Fungi × 10^5 (cfu/mL): 1 week at 25 ° C., total fungal count 2.84 × 10^5 cfu/mL
# Method: as §3, §4, §5
# [7] = test system: Escherichia coli, Staphylococcus aureus, Pseudomonas aeruginosa, Candida albicans, and Aspergillus niger; assay: USP and EP/BP preservative efficacy tests; type: cell-based; details: 0.75% benzyl alcohol
# Method: as §4
# The antimicrobial efficacy of the preservative was monitored by the USP and EP/BP preservative efficacy tests.
# [8] = test system: formulated humanized monoclonal antibody; assay: Stability and bioactivity of the protein formulated with 0.75% benzyl alcohol, monitored over time; type: physicochemical
# [9] = preservative 0.5%, listed as benzyl alcohol
# [10] = main effect of the preservative (bi)
# [11] = preservative 0.75%, listed as benzyl alcohol
# [12] = quadratic term of one preservative (bii)
# [13] = single preservative, 0.75% benzyl alcohol
compound,measurement,setting,value
"OCc1ccccc1 [Benzyl alcohol, benzyl alcohol]",antibody precipitation,[1]; benzyl alcohol at high concentration such as 1.0%,causes antibody precipitation
same,Visual analysis,[1]; preservative 0.5%,Clear
same,Visual analysis,[1]; [9],clear
same,Visual analysis,[1]; preservative 1.0%,Slightly cloudy
same,Visual analysis,[1]; preservative 2%,caused sample precipitation; also recorded: Precipitated
same,Stability by SEC (in words),[2]; 7 days at 45° C.,unstable due to the formation of soluble aggregates
same,aggregation (in words),[2]; benzyl alcohol at high concentrations (≧1.0%),caused significant aggregation
same,Monomer (%),[2]; preservative 0.1%,97.65%
same,Monomer (%),[2]; preservative 0.5%,93.92%
same,Percent monomer (by SEC),[2]; preservative 0.5%,92.3%
same,Percent monomer (by SEC),[2]; [9],~92%
same,Monomer (%),[2]; preservative 0.75%,87.97%
same,Percent monomer (by SEC),[2]; preservative 1.0%,13.4%
same,Tm (by DSC),[3]; preservative 0.5%,78.5 °C
same,Tm (by DSC),[3]; preservative 1.0%,75.8 °C
same,Tm (by DSC),[3]; preservative 2%,72.3 °C
same,Potency (%),[4]; preservative 0.1%,81%
same,Potency (%),[4]; preservative 0.5%,75%
same,Potency (%),[4]; preservative 0.75%,74%
same,"antimicrobial efficacy against bacteria (regression analysis, in words)","[5]; I-optimal design, 14 days at room temperature",statistically significant antimicrobial efficacy
same,"b-coefficient, Bacterial LR",[5]; [10],1.04 ± 0.05
same,Bacterial × 10^4 (cfu/mL),[5]; preservative 0.1%,TNTC
same,Bacterial × 10^4 (cfu/mL),[5]; preservative 0.5%,0 × 10^4 cfu/mL
same,Bacterial × 10^4 (cfu/mL),[5]; [9],complete kill
same,Bacterial × 10^4 (cfu/mL),[5]; preservative 0.75%,0 × 10^4 cfu/mL
same,Bacterial × 10^4 (cfu/mL),[5]; [11],complete kill
same,"b-coefficient, Bacterial LR",[5]; [12],−0.68 ± 0.11
same,"log reduction value predicted by simulation, bacteria",[5]; [13],4.8
same,antimicrobial efficacy against fungi (in words),"[6]; 7 days, at least 0.5% benzyl alcohol, parabens and chlorobutanol at their highest concentration",satisfactory
same,"b-coefficient, Fungal LR",[6]; [10],0.51
same,Fungi × 10^5 (cfu/mL),[6]; preservative 0.1%,12 × 10^5 cfu/mL
same,Fungi × 10^5 (cfu/mL),[6]; preservative 0.5%,0 × 10^5 cfu/mL
same,Fungi × 10^5 (cfu/mL),[6]; [9],complete kill
same,Fungi × 10^5 (cfu/mL),[6]; preservative 0.75%,0 × 10^5 cfu/mL
same,Fungi × 10^5 (cfu/mL),[6]; [11],complete kill
same,"b-coefficient, Fungal LR",[6]; [12],−0.46
same,"log reduction value predicted by simulation, fungi",[6]; [13],3.7
same,USP and EP/BP regulatory requirements,[7],USP and EP/BP (criterion B only) regulatory requirements were satisfied
same,protein stability compared with the control formulation,[8],comparable to that of the control formulation
